Experimental data published in patent EP0412762A2, “Peptide inhibitors of human papilloma virus protein binding to retinoblastoma gene proteins” (priority 1989, dated 1991).
pIC50: −log10 of the molar value. Non-standard residues stand in square brackets, D forms with d. Residues, ends and D or L forms follow the SMILES beside them. No end group written: not given here. *: point of attachment. Abu = CC[C@H](N)C(=O)O; Acm = CC(=O)NC*

Columns and labels:
[1] = target: T1, binding of the HPV-16 E7 protein to the RBG protein (Homo sapiens, UniProt P06400); test: Binding inhibition assay in vitro: immune precipitation of RBG protein from Hela lysate with radiolabelled HPV-16 E7 (Example 2); conditions: for inhibition of the binding of the HPV E7 protein to the RBG protein (in words): summary statement
T1 construct: Whole cell lysates of Hela cells were used as a source of human RBG protein; endogenous in cells; host or cells: HeLa whole cell lysate (RB); rabbit reticulocyte lysate, T7 promoter clone (E7)
T1 sequence (P06400 1-928): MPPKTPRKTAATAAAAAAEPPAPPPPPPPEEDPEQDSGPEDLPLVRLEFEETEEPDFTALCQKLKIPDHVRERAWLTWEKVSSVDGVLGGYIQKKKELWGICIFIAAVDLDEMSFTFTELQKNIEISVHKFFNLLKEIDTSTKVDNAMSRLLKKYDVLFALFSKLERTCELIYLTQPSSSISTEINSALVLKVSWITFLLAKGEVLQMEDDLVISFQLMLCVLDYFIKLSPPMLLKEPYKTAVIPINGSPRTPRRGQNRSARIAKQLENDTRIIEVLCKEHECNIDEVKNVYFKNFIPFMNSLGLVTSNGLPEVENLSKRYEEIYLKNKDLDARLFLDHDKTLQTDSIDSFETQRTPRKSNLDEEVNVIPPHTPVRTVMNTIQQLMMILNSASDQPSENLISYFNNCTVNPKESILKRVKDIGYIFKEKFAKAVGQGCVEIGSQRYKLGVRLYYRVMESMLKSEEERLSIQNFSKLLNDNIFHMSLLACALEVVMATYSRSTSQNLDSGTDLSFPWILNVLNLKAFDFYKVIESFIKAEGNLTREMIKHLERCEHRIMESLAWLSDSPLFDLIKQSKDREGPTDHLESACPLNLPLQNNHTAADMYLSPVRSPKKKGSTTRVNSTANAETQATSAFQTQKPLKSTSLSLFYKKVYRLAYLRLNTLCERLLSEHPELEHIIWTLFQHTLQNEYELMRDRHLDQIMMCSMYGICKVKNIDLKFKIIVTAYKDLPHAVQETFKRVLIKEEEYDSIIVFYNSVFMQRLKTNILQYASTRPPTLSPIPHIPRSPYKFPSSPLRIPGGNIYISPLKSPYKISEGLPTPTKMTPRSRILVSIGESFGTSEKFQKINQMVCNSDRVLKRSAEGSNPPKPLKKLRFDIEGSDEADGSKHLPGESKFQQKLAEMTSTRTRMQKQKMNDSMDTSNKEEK
Description: Peptide A, Peptide B, and Acetyl-GRP 20-27 were assayed for their abilities to inhibit the binding of the HPV-16 E7 protein to the RBG protein. Binding inhibition assays were carried out in vitro using a modification of the procedure described by N. Dyson et al., Science 243: 934-936 1989. Whole cell lysates of Hela cells were used as a source of human RBG protein. Rabbit reticulocyte cell free lysates that permit transcription and translation of exogenously added DNAs served as a source of HPV-16 E7 protein. The HPV-16 E7 gene was added to the rabbit reticulocyte lysate as a recombinant DNA clone under the control of a T7 promoter and incubated for 60 minutes at 30°C in the presence of radiolabeled methionine to allow transcription of the HPV-16 E7 gene and translation into E7 protein that contained radiolabeled methionine. The Hela cell and rabbit reticulocyte lysates were then mixed and incubated at 4°C for 90 minutes. After further manipulations a murine antibody against the RBG protein was added and incubated at 4°C for 60 minutes. Next, a rabbit anti-mouse IgG antibody and protein A sepharose was added to the reaction mixture in order to immune precipitate the RBG protein. At the same time, the E7 protein that was bound to the RBG protein was also precipitated. After an additional 60 minute incubation at 4°C the precipitated proteins were isolated by centrifugation and examined by polyacrylamide gel electrophoresis. Following electrophoresis, the polyacrylamide gel was dried and exposed to x-ray film. […] This biochemical protocol yields a quantitative estimate of the binding of HPV-16 E7 protein to the RBG protein in vitro.
These biochemical reactions can be run with or without added synthetic peptides to evaluate the effects of various concentrations of peptides on the binding of the HPV E7 protein to the RBG protein. In our studies, the addition of peptide A to these reaction mixtures at concentrations of 40 uM, 20 uM, or 2 uM caused a reduction in HPV-16 E7 protein binding to the RBG protein of 90%, 90% and 60% respectively. Addition of Peptide B or Acetyl-GRP 20-27 to the reaction mixture at concentrations up to 60 uM had no effect on HPV-16 E7 protein binding to the RBG protein.

RBG Protein/E7 [2] = target: T2, RBG Protein/E7 (Homo sapiens, UniProt P06400); test: In vitro solution assay for E7/RBG protein complex formation (immunoprecipitation, T24 cell lysates); assay type: binding; set-up: Cell lysates used as a source of RBG protein were prepared from human T24 bladder carcinoma cells; endogenous in cells; host or cells: human T24 bladder carcinoma cell lysate
T2 sequence (P06400 1-928): T1 sequence (P06400 1-928)
Description: (§1) An in vitro solution assay used for the detection of complex formation between E7 protein and p105-RB has been described by Dyson, et al (30). Cell lysates used as a source of RBG protein were prepared from human T24 bladder carcinoma cells as described (30). C36 and the control antibody Pb416 are monoclonal antibodies directed against RGB protein and SV40 large T protein, respectively. These antibodies were a generous gift from E. Harlow (Cold Spring Harbor Laboratories, Cold Spring Harbor, NY). Immunoprecipitates of E7/RBG protein binding reactions containing serially diluted peptide antagonists were dissolved in 35 µl gel loading buffer (30). Five µl was counted directly in Right Safe (Beckman, Palo Alto, CA.) scintillation cocktail and 25 µl was subjected to sodium dodecyl sulphate poly-acrylamide gel electrophoresis. Gels were dried and exposed to Kodak X-AR film at -70 °C overnight. In order to more rapidly assay large numbers of samples and more easily quantitate the binding results, we developed a plate binding assay for the detection of E7/RBG protein association. Purified recombinant E7 was resuspended in 0.1 M sodium carbonate, pH 9.5, at 1 ng/µl. Fifty microliters of this solution was placed into each well of a polyvinyl chloride microtiter plate (COSTAR 2596, Cambridge, MA.). The plate was gently agitated for 18 hours at 4 °C. The E7 solution was aspirated off and 100 µl of plate blocking buffer (PBB) [50mM Hepes 7.0, 250 mM sodium chloride, 0.1% NP4O, 0.5% (w/v) pigskin gelatin, and 0.02% sodium azide] was added per well. The buffer was removed and the plate was washed three times in the above buffer without the gelatin (PB). Five femtomoles of ³⁵S-methionine (Amersham 1100 Ci/mmole, Arlington Heights, IL.) labeled RBG protein prepared in a rabbit reticulocyte lysate was diluted in PB buffer containing various peptide antagonists to a final volume of 50 µl and added to the E7 treated plate. The plate was again incubated at 4 °C with agitation for 1 hour after which the solution was aspirated and each well washed five times with PB. The top of the plate was removed using a hot wire cutting apparatus (D. Lee, Sunnyvale, CA). Each well was placed in 3 ml of Ready Safe scintillation cocktail (Beckman, Palo Alto, CA.) and counted for 1 minute.
(§2) IC₅₀ values represent the average of at least two experiments in which each concentration of inhibitor was tested in triplicate. The variation between experiments was less than 10%. The 50% inhibition concentrations are micromolar. ND = not determined.

RBG Protein/E7 [3] = target: T2, RBG Protein/E7; test: Plate binding assay for E7/RBG protein association (E7-coated plate, 35S-labelled RBG protein); set-up: made in house; host or cells: rabbit reticulocyte lysate (RB, in vitro translation)
Description: as §1, §2

[4] = average of at least two experiments, triplicate, read-out: SOLUTION ASSAY RBG Protein/E7 IC₅₀
[5] = average of at least two experiments, triplicate, read-out: PLATE ASSAY RBG Protein/E7 IC₅₀

Row | Molecule | pIC50 (RBG Protein/E7 [2]; [4]) | pIC50 (RBG Protein/E7 [3]) | pIC50 (RBG Protein/E7 [3]; [5]) | further results
1 | CSCC[C@H](NC(=O)[C@H](CC(C)C)NC(=O)[C@H](Cc1c[nH]cn1)NC(=O)CNC(=O)[C@@H](NC(=O)[C@H](C)NC(=O)[C@H](Cc1c[nH]c2ccccc12)NC(=O)[C@H](Cc1c[nH]cn1)NC(C)=O)C(C)C)C(N)=O [Acetyl-GRP 20-27, reference compound] | – | – | – | effect on HPV-16 E7 protein binding to the RBG protein ([1]; concentrations up to 60 uM): no effect; inhibition of the binding of the HPV E7 protein to the RBG protein (in words) [1]: can not inhibit
2 | CC[C@H](NC(=O)[C@H](Cc1ccc(O)cc1)NC(=O)[C@H](CC(C)C)NC(=O)[C@H](CC(=O)O)NC(=O)[C@@H](N)[C@@H](C)O)C(=O)N[C@@H](Cc1ccc(O)cc1)C(=O)N[C@@H](CCC(=O)O)C(=O)N[C@@H](CCC(N)=O)C(=O)N[C@@H](CC(C)C)C(=O)N[C@@H](CC(N)=O)C(=O)N[C@@H](CC(=O)O)C(=O)N[C@@H](CO)C(=O)N[C@@H](CO)C(N)=O [Peptide 17, [ABU²⁴]-E7-(20-32)-AMIDE] (H-TDLY[Abu]YEQLNDSS-NH2) | 4.70 | – | – | –
3 | CC(=O)NCSC[C@H](NC(=O)[C@H](Cc1ccc(O)cc1)NC(=O)[C@H](CC(C)C)NC(=O)[C@H](CC(=O)O)NC(=O)[C@@H](N)[C@@H](C)O)C(=O)N[C@@H](Cc1ccc(O)cc1)C(=O)N[C@@H](CCC(=O)O)C(=O)N[C@@H](CCC(N)=O)C(=O)N[C@@H](CC(C)C)C(=O)N[C@@H](CC(N)=O)C(=O)N[C@@H](CC(=O)O)C(=O)N[C@@H](CO)C(=O)N[C@@H](CO)C(N)=O [Peptide 18, [ACM²⁴]-E7-(20-32)-AMIDE] (H-TDLYC(Acm)YEQLNDSS-NH2) | – | – | – | pIC50 (RBG Protein/E7 [2]): < 4.00
4 | Ac-DLYCYEQLN-NH2 [Peptide 14, N-Ac-E7-(21-29)-AMIDE] | – | 7.40 | – | pIC50 (RBG Protein/E7 [2]): 6.00
5 | Ac-LYCYEQLNDSS-NH2 [Peptide 15, N-Ac-E7-(22-32)-AMIDE] | 5.00 | – | 4.60 | –
6 | Ac-LYCYEQLNDSS-NH2 [Peptide C, Ac-Leu-Tyr-Cys-Tyr-Glu-Gln-Leu-Asn-Asp-Ser-Ser-NH₂] | – | – | – | concentration at which HPV-16 E7 protein binding to the RBG protein was inhibited ([1]; concentrations as low as): ≤ 1 µM
7 | Ac-TDLYCYEQLN [Peptide 12, N-Ac-E7-(20-29)-ACID] | – | 7.22 | – | –
8 | Ac-TDLYCYEQLN-NH2 [Peptide 13, N-Ac-E7-(20-29)-AMIDE] | – | 7.10 | – | –
9 | DLYCYEQLNDSS-NH2 [Peptide 10, E7-(21-32)-AMIDE] | – | 4.94 | – | pIC50 (RBG Protein/E7 [2]): 4.70
10 | E7-(14-29)-AMIDE (DLQPETTDLYCYEQLN-NH2; UniProt P03129 14-29, looked up, fragment) [Peptide 7] | – | – | 7.10 | –
11 | E7-(18-29)-AMIDE (ETTDLYCYEQLN-NH2; UniProt P03129 18-29, looked up, fragment) [Peptide 8] | 6.40 | – | 7.22 | –
12 | TDLFCYEQLN-NH2 [Peptide 19, [Phe²³]-E7-(20-29)-AMIDE] | 6.00 | – | 6.22 | –
13 | TDLYCFEQLN-NH2 [Peptide 20, [Phe²⁵]-E7-(20-29)-AMIDE] | 4.82 | – | < 4.30 | –
14 | TDLYCYE-NH2 [Peptide 6, E7-(20-26)-AMIDE] | 4.00 | – | 5.48 | –
15 | TDLYCYENLND-NH2 [Peptide 23, [Asn²⁷]-E7-(20-30)-AMIDE] | 6.00 | – | – | –
16 | TDLYCYEQ-NH2 [Peptide 5, [Gln27]]-E7-(20-27)-AMIDE] | 4.30 | – | 5.04 | –
17 | TDLYCYEQL-NH2 [Peptide 4, E7-(20-28)-AMIDE] | 5.30 | – | 6.15 | –
18 | TDLYCYEQLN [Peptide 11, E7-(20-29)-ACID] | – | 7.10 | – | –
19 | TDLYCYEQLN-NH2 [Peptide 9, E7-(20-29)-AMIDE] | – | 7.05 | – | pIC50 (RBG Protein/E7 [2]): 6.00
20 | TDLYCYEQLND-NH2 [Peptide 2, E7-(20-30)-AMIDE] | – | 7.10 | – | pIC50 (RBG Protein/E7 [2]): 6.00
21 | TDLYCYEQLNDSS-NH2 [Peptide 1, E7-(20-32)-AMIDE] | – | 7.30 | – | pIC50 (RBG Protein/E7 [2]): 6.00
22 | TDLYCYEQLNDSS-NH2 [Peptide A, Thr-Asp-Leu-Tyr-Cys-Tyr-Glu-Gln-Leu-Asn-Asp-Ser-Ser-NH₂] | – | – | – | reduction in HPV-16 E7 protein binding to the RBG protein ([1]; peptide at 2 uM): 60%; reduction in HPV-16 E7 protein binding to the RBG protein ([1]; peptide at 20 uM): 90%; reduction in HPV-16 E7 protein binding to the RBG protein ([1]; peptide at 40 uM): 90%; inhibition of the binding of the HPV E7 protein to the RBG protein (in words) [1]: inhibited
23 | TDLYCYQQL-NH2 [Peptide 21, [Gln²⁶]-E7-(20-28)-AMIDE] | < 4.00 | – | – | –
24 | TDLYSYEQLNDSS-NH2 [Peptide 16, [Ser²⁴]-E7-(20-32)-AMIDE] | 4.40 | – | – | –
25 | TNLYCYEQL-NH2 [Peptide 22, [Asn²¹]-E7-(20-28)-AMIDE] | < 4.00 | – | – | –
